Reference: ChEMBL document CHEMBL5113442, “Discovery of agonist-antagonist pairs for the modulation of Ca [2]+ and voltage-gated K+ channels of large conductance that contain beta1 subunits” (Bioorg Med Chem, 2022)
Active and inactive are the calls of the source. No cut-off for these calls is given here.

Columns and labels:
Format in all cases: cell-based
CHO [1] = experiment: Agonist activity at rat BK calcium channel alphabeta1 expressed in CHO cells assessed as maximal current amplitude by automated whole cell patch clamp analysis; settings: filed as agonist
CHO [2] = experiment: Agonist activity at rat BK calcium channel alphabeta1 expressed in CHO cells assessed as fold increase in current amplitude at 0.0001 to 33.3 uM by automated whole cell patch clamp analysis; settings: filed as agonist, dose 0.0001-33.3 µM
[3] = Agonist activity at rat BK calcium channel alphabeta1 expressed in CHO cells assessed as increase in current amplitude by automated whole cell patch clamp analysis
CHO [4] = experiment: Antagonist activity at rat BK calcium channel alphabeta1 expressed in CHO cells assessed as decrease in current amplitude at 0.1 to 1 uM in presence of compound 1 by automated whole cell patch clamp analysis; settings: filed as antagonist, dose 0.1-1 µM
CHO [5] = experiment: Antagonist activity at rat BK calcium channel alphabeta1 expressed in CHO cells assessed as fold change in current amplitude at 1 uM in presence of compound 1 by automated whole cell patch clamp analysis; settings: filed as antagonist
CHO [6] = experiment: Antagonist activity at rat BK calcium channel alphabeta1 expressed in CHO cells assessed as fold change in current amplitude at 3 uM in presence of compound 1 by automated whole cell patch clamp analysis; settings: filed as antagonist

Compound	ECmax (CHO [1]) [µM]	fold change (FC) (CHO [2])	also measured
COc1ccc(NC(=O)/C(=C\c2cccc([N+](=O)[O-])c2)NC(=O)c2ccc(F)cc2Cl)cc1OC	0.15	1.94	
O=C(NCc1ccc(F)cc1)c1nnc(/C(Cl)=C\c2cccc([N+](=O)[O-])c2)s1		1.73	
O=C(Nc1ccccc1)c1nnc(/C(Cl)=C\c2cccc([N+](=O)[O-])c2)s1	0.44	4.05	
O=C1NC(=O)N(c2ccc(F)cc2)C(=O)/C1=C/c1cc(Br)ccc1OCc1cccc([N+](=O)[O-])c1	1.05		EC50 [3]: 20 nM
COc1ccc(C(=O)NC(=S)Nc2ccc(O)c(-c3nc4ccc(C)cc4o3)c2)cc1[N+](=O)[O-]	0.21	2.47	
Cc1ccc(C(=O)NN2C(=O)/C(=C\c3ccc(OC(=O)c4cccc([N+](=O)[O-])c4)cc3)SC2=S)cc1		2.47	
O=C(Nc1ccc(F)cc1)c1nnc(/C(Cl)=C\c2cccc([N+](=O)[O-])c2)s1	0.72		EC50 [3]: 5 nM
CC[C@@H](C)NS(=O)(=O)c1cc([N+](=O)[O-])ccc1Oc1c(C)c(C(=O)NC[C@@H]2CCCO2)nn1-c1cccc(C)c1C	0.42		EC50 [3]: 2 nM
Cc1n[nH]c(C)c1CCc1nc2c3ccccc3nc(SCc3ccc([N+](=O)[O-])cc3)n2n1	0.25	1.23	Activity (CHO [4]): Active; fold change (FC) (CHO [5]): 2.2; fold change (FC) (CHO [6]): 2
COc1ccc([N+](=O)[O-])cc1/N=c1\ssc2c1-c1cc(C)c(C)cc1NC2(C)C		3.86	
C/C(=N\Nc1ccc([N+](=O)[O-])cc1S(=O)(=O)Nc1ccccc1Cl)c1ccc2ccccc2c1O	0.38	4.05	
O=C(Cc1ccc([N+](=O)[O-])cc1)NC[C@H](c1ccccc1Cl)c1c[nH]c2ccccc12		2.51	
COc1cc(/C=C2/C(=O)NC(=O)N(c3ccccc3)C2=O)cc(Br)c1OCc1ccc([N+](=O)[O-])cc1	0.35	4.07	
C/C(=C/C(=O)C[C@H](C)C(=O)O)[C@@H]1CC(=O)[C@@]2(C)C3=C(C(=O)C[C@]12C)[C@@]1(C)CCC(=O)C(C)(C)[C@@H]1C[C@@H]3O	0.78		EC50 [3]: 20 nM
CCOC(=O)c1c(NC(=O)[C@H](C)Sc2nnc(CNC(=O)c3ccc(C)c([N+](=O)[O-])c3)n2CCc2ccccc2)sc2c1CCC2	0.14	1.84	
